pKi: −log10 of the molar value. Where “and” joins values, the source holds several entries; their conditions need not be identical. Equal values may be shown once.
Key:
[1] = test system: Prss35 mRNA; experiment: siRNA silencing in CHO-K1 derived cells, mRNA expression by real-time RT-PCR; type: cell-based, Chinese hamster; details: for residual protease gene-expression: siRNA negative control cells = 100%
Procedure: (§1) First, the proteolytic cleavage site(s) of different recombinant proteins that are prone to clipping were analyzed using different techniques including CE-SDS analysis, mass spectrometry and in silico analysis (data not shown). […] The siRNAs were designed against the following target mRNAs expressed in CHO cells: 1. Matriptase (MT-SP1; also referred to herein as St14), 2. C1r (complement component activated C1r; also referred to as Ctra), 3. C1s (complement component C1sB; also referred to as Gm5077), 4. Plat (t-plasminogen activator) and 5. Prss35 (protease, serine, 35). These target genes encode trypsin-like proteases that are either secreted or transmembrane proteins and thus could be involved in clipping of recombinantly expressed proteins that are secreted into the cell culture medium. It was confirmed in advance that these proteins are expressed by the CHO cells. Table 2 provides an overview over the respective target genes:
(§2) RNAi transfection of CHO-K1 derived cells was performed using Lipofectamine® RNAiMAX Reagent (Life Technology, cat. 13778), following the ‘Reverse Transfection Protocol’ of the manual MAN0001182, scaled up for 6-well plates. For each mRNA target, the two most efficient concentrations of RNAi duplex molecules were used among 100, 125 and 150 pmol: 125 and 150 pmol for MT-SP1 (St14), 125 and 150 pmol for C1r (C1ra), 100 and 125 pmol for Cis (Gm5077), 125 and 150 pmol for Plat and 100 and 125 pmol for Prss35. RNAi duplex molecules of the two selected concentrations were diluted in 1 ml Opti-MEM® (Gibco, cat. 31985-062). As RNAi negative control (siRNA negative control), the Silencer@ Negative Control No. 1 siRNA (AM4611) was used (at 125 pmol). 5 μl Lipofectamine® RNAiMAX Reagent was added in each well. 2 ml of a cell suspension with a concentration of 0.5×10^6 cells/ml were added and plates were incubated at 37° C. and 10% CO2. Three days after transfection, cell density was measured, total RNA of 3×10^6 viable cells was extracted using RNeasy Plus Mini Kit (Qiagen, cat. 74134) and conditioned medium was collected from each well. To control the silencing effect on the target genes, mRNA expression was determined by real-time RT-PCR.

[2] = test system: Plat mRNA; experiment: as above; type: cell-based, Chinese hamster; details: for residual protease gene-expression: siRNA negative control cells = 100%
Procedure: as §1, §2

[3] = test system: C1s (Gm5077) mRNA; experiment: as above; type: cell-based, Chinese hamster; details: for residual protease gene-expression: siRNA negative control cells = 100%
Procedure: as §1, §2

[4] = test system: Matriptase (MT-SP1, St14) mRNA; experiment: as above; type: cell-based, Chinese hamster; details: for residual protease gene-expression: siRNA negative control cells = 100%, three days after transfection
Procedure: as §1, §2

[5] = test system: C1r (C1ra) mRNA; experiment: as above; type: cell-based, Chinese hamster; details: for residual protease gene-expression: siRNA negative control cells = 100%
Procedure: as §1, §2

[6] = target: T1, matriptase (Homo sapiens, UniProt Q9Y5Y6); details: Forbs et al. 2005; Desilets et al. 2006; cited from earlier work
T1 sequence (Q9Y5Y6 1-855): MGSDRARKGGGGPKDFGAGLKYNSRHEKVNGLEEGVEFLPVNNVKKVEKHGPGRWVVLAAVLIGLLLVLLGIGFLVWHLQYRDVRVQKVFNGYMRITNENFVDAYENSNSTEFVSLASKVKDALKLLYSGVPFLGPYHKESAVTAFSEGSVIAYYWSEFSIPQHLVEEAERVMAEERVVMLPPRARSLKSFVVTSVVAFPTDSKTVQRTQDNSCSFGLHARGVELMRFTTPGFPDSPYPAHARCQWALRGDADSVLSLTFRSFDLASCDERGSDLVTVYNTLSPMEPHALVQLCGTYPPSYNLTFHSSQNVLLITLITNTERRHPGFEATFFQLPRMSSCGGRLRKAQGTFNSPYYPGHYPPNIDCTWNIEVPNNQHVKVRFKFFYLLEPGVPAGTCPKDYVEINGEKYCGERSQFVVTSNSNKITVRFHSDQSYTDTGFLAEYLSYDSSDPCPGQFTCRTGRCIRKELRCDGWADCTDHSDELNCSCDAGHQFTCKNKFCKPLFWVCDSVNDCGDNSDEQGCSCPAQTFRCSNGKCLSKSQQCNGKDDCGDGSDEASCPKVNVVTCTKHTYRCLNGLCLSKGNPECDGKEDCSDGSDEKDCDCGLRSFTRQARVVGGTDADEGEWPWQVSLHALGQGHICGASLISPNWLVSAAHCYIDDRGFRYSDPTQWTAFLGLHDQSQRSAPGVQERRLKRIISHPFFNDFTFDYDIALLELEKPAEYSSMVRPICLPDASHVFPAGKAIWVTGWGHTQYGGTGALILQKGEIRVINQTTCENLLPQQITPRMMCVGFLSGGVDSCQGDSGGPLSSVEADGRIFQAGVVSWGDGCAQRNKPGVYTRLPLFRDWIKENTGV

Substance: Prss35: siRNA against Prss35 mRNA, sense SEQ ID NO: 14, antisense SEQ ID NO: 15 (sense GGCCUUAGACUACGACUAUTT; antisense AUAGUCGUAGUCUAAGGCCGG; chemistry not given here)
- residual protease gene-expression ([1]; 100 pmol siRNA): 18.4%
- residual protease gene-expression ([1]; 125 pmol siRNA): 14.8%
- mRNA reduction ([1]; two siRNA concentrations): 81.6% and 85.2%

Substance: Plat: siRNA against Plat mRNA, sense SEQ ID NO: 12, antisense SEQ ID NO: 13 (sense GAAACAAGAUGAAGACAGATT; antisense UCUGUCUUCAUCUUGUUUCCC; chemistry not given here)
- residual protease gene-expression ([2]; 125 pmol siRNA): 8.3%
- residual protease gene-expression ([2]; 150 pmol siRNA): 5.1%
- mRNA reduction ([2]; two siRNA concentrations): 91.7% and 94.9%

Substance: C1s (Gm5077): siRNA against Gm5077 (C1s) mRNA, sense SEQ ID NO: 10, antisense SEQ ID NO: 11 (sense CGCUGAACGUGUGAUUAUUTT; antisense AAUAAUCACACGUUCAGCGGT; chemistry not given here)
- residual protease gene-expression ([3]; 100 pmol siRNA): 11.9%
- residual protease gene-expression ([3]; 125 pmol siRNA): 14.4%
- mRNA reduction ([3]; two siRNA concentrations, listed as Cis (Gm5077)): 88.1% and 85.6%

Substance: MT-SP1: siRNA against matriptase mRNA, sense SEQ ID NO: 6, antisense SEQ ID NO: 7 (sense GCAAGAUCACUGUUCGCUUTT; antisense AAGCGAACAGUGAUCUUGCTG; chemistry not given here)
- residual protease gene-expression ([4]; 125 pmol siRNA): 18.6%
- residual protease gene-expression ([4]; 150 pmol siRNA): 18.2%
- MT-SP1 suppressed in comparison to the negative control ([4]; two set-ups (125 and 150 pmol siRNA)): 81.4% and 81.8%

Substance: C1r (C1ra): siRNA against C1ra mRNA, sense SEQ ID NO: 8, antisense SEQ ID NO: 9 (sense GAUGUCUUUUCUCAAAAUATT; antisense UAUUUUGAGAAAAGACAUCAT; chemistry not given here)
- residual protease gene-expression ([5]; 125 pmol siRNA): 6.3%
- residual protease gene-expression ([5]; 150 pmol siRNA): 6.7%
- mRNA reduction ([5]; two siRNA concentrations): 93.7% and 93.3%

Substance: eglin c
- pKi [6]: 7.74
